From patent US9624180B2, “Squaric derivatives for the treatment of hepatitis C” (priority 2013, dated 2017)
Like-named read-outs stand apart in the source and are kept apart here.

Tested on: HCV pseudoparticles (genotype 1a HCV E1 and E2 envelope, H77C isolate)
Test: HCV pseudoparticle infection assay (luciferase reporter, entry into Huh7 cells)
Format: cell-based, HCV genotype 1a
Conditions: Hepatitis C virus, Huh-7, 48 h
[1] = read-out: EC50 (1a, nM), genotype 1a HCV pseudoparticles, Huh7 cells, luciferase 2 days after infection, average of duplicates
[2] = read-out: EC50 (1a, nM), genotype 1a HCV pseudoparticles, Huh7 cells, luciferase 2 days after infection, class symbol

SMILES	EC50 [1] [nM]	EC50 [2] [nM]
COC(=O)[C@H](CNc1c(OC)c(=O)c1=O)NC(=O)c1ccc(Nc2nc(NC3(c4ccc(Cl)cc4)CC3)nc(OCC(F)(F)F)n2)cc1 [Compound 1001, (S)-methyl 2-(4-(4-(1-(4-chlorophenyl)cyclopropylamino)-6-(2,2,2-trifluoroethoxy)-1,3,5-triazin-2-ylamino)benzamido)-3-(2-methoxy-3,4-dioxocyclobut-1-enylamino)propanoate]	117	10 to 1000
CCOc1c(NC[C@H](NC(=O)c2ccc(Nc3nc(NC4(c5ccc(Cl)cc5)CC4)nc(OCC(F)(F)F)n3)cc2)C(=O)OC)c(=O)c1=O [Compound 1002, (S)-methyl 2-(4-(4-(1-(4-chlorophenyl)cyclopropylamino)-6-(2,2,2-trifluoroethoxy)-1,3,5-triazin-2-ylamino)benzamido)-3-(2-ethoxy-3,4-dioxocyclobut-1-enylamino)propanoate]		10 to 1000
COC(=O)[C@H](CNc1c(O)c(=O)c1=O)NC(=O)c1ccc(Nc2nc(NC3(c4ccc(Cl)cc4)CC3)nc(OCC(F)(F)F)n2)cc1 [Compound 1003, (S)-methyl 2-(4-(4-(1-(4-chlorophenyl)cyclopropylamino)-6-(2,2,2-trifluoroethoxy)-1,3,5-triazin-2-ylamino)benzamido)-3-(2-hydroxy-3,4-dioxocyclobut-1-enylamino)propanoate]	47	10 to 1000
CCOc1c(NC[C@H](NC(=O)c2ccc(Nc3nc(NC4(c5ccc(Cl)cc5)CC4)nc(OCC(F)(F)F)n3)cc2)C(=O)O)c(=O)c1=O [Compound 1004, (S)-2-(4-(4-(1-(4-chlorophenyl)cyclopropylamino)-6-(2,2,2-trifluoroethoxy)-1,3,5-triazin-2-ylamino)benzamido)-3-(2-ethoxy-3,4-dioxocyclobut-1-enylamino)propanoic acid]		10 to 1000
CCOc1c(NCC(C)(C)CNC(=O)c2ccc(Nc3nc(NC4(c5ccc(Cl)cc5)CC4)nc(OCC(F)(F)F)n3)cc2)c(=O)c1=O [Compound 1005, 4-((4-((1-(4-chlorophenyl)cyclopropyl)amino)-6-(2,2,2-trifluoroethoxy)-1,3,5-triazin-2-yl)amino)-N-(3-((2-ethoxy-3,4-dioxocyclobut-1-en-1-yl)amino)-2,2-dimethylpropyl)benzamide]		0.01 to 10
CC(C)(CNC(=O)c1ccc(Nc2nc(NC3(c4ccc(Cl)cc4)CC3)nc(OCC(F)(F)F)n2)cc1)CNc1c(O)c(=O)c1=O [Compound 1006]	0.52	0.01 to 10
CC(C)(CNC(=O)c1ccc(Nc2nc(NC3(c4ccc(Cl)cc4)CC3)nc(OCC(F)(F)F)n2)cc1)CNc1c(NCC2CC2)c(=O)c1=O [Compound 1007]		0.01 to 10
CC(C)(CNC(=O)c1ccc(Nc2nc(NC3(c4ccc(Cl)cc4)CC3)nc(OCC(F)(F)F)n2)cc1)CNc1c(NCc2ccc(F)cc2F)c(=O)c1=O [Compound 1008]	0.05	0.01 to 10
CC(C)(CNC(=O)c1ccc(Nc2nc(NC3(c4ccc(Cl)cc4)CC3)nc(OCC(F)(F)F)n2)cc1)CNc1c(NC2CCCCCC2)c(=O)c1=O [Compound 1009]		0.01 to 10
CC(C)(CNC(=O)c1ccc(Nc2nc(NC3(c4ccc(Cl)cc4)CC3)nc(OCC(F)(F)F)n2)cc1)CNc1c(NCC2(CN3CCCC3)CC2)c(=O)c1=O [Compound 1010]		0.01 to 10
O=C(N[C@@H](CCNc1c(NCC2CC2)c(=O)c1=O)C(=O)NCC1CC1)c1ccc(Nc2nc(NC3(c4ccc(Cl)cc4)CC3)nc(OCC(F)(F)F)n2)cc1 [Compound 1011]	5.98	0.01 to 10
O=C(N[C@@H](CCNc1c(NC2CCCCCCC2)c(=O)c1=O)C(=O)O)c1ccc(Nc2nc(NC3(c4ccc(Cl)cc4)CC3)nc(OCC(F)(F)F)n2)cc1 [Compound 1012]		0.01 to 10
CC(C)(CNC(=O)c1ccc(Nc2nc(NC3(c4ccc(Cl)cc4)CC3)nc(OCC(F)(F)F)n2)cc1)CNc1c(Nc2ccccc2)c(=O)c1=O [Compound 1013]		0.01 to 10
O=C(N[C@@H](CCNc1c(Nc2ccccc2)c(=O)c1=O)C(=O)Nc1ccccc1)c1ccc(Nc2nc(NC3(c4ccc(Cl)cc4)CC3)nc(OCC(F)(F)F)n2)cc1 [Compound 1014]		10 to 1000
O=C(N[C@@H](CCNc1c(NCC2(Cn3ccnc3)CC2)c(=O)c1=O)C(=O)O)c1ccc(Nc2nc(NC3(c4ccc(Cl)cc4)CC3)nc(OCC(F)(F)F)n2)cc1 [Compound 1015]	6.55	0.01 to 10
O=C(N[C@@H](CCNc1c(Nc2ccccc2)c(=O)c1=O)C(=O)O)c1ccc(Nc2nc(NC3(c4ccc(Cl)cc4)CC3)nc(OCC(F)(F)F)n2)cc1 [Compound 1016]		0.01 to 10
O=C(N[C@@H](CCNc1c(N[C@@H]2C[C@H]3CC[C@@H]2C3)c(=O)c1=O)C(=O)O)c1ccc(Nc2nc(NC3(c4ccc(Cl)cc4)CC3)nc(OCC(F)(F)F)n2)cc1 [Compound 1017]		0.01 to 10
O=C(N[C@@H](CCNc1c(NC2CCCCCC2)c(=O)c1=O)C(=O)NC1CCCCCC1)c1ccc(Nc2nc(NC3(c4ccc(Cl)cc4)CC3)nc(OCC(F)(F)F)n2)cc1 [Compound 1018]		0.01 to 10
O=C(N[C@@H](CCNc1c(N[C@@H]2C[C@H]3CC[C@@H]2C3)c(=O)c1=O)C(=O)N[C@@H]1C[C@H]2CC[C@@H]1C2)c1ccc(Nc2nc(NC3(c4ccc(Cl)cc4)CC3)nc(OCC(F)(F)F)n2)cc1 [Compound 1019]		10 to 1000
O=C(N[C@@H](CCNc1c(NCc2ccc(F)cc2F)c(=O)c1=O)C(=O)NCc1ccc(F)cc1F)c1ccc(Nc2nc(NC3(c4ccc(Cl)cc4)CC3)nc(OCC(F)(F)F)n2)cc1 [Compound 1020]		0.01 to 10
CCOC(=O)[C@H](CCNc1c(NC2CCCCCC2)c(=O)c1=O)NC(=O)c1ccc(Nc2nc(NC3(c4ccc(Cl)cc4)CC3)nc(OCC(F)(F)F)n2)cc1 [Compound 1021]	1.24	0.01 to 10
